Source: patent publication US11478474B2, “2-(3′-(hydroxymethyl)-1-methyl-5-((5-(2-methyl-4-(oxetan-3-yl)piperazin-1-yl)pyridin-2-yl)amino)-6-oxo-1,6-dihydro-[3,4′-bipyridin]-2′-yl)-7,7-dimethyl-7,8-dihydro-2H-cyclopenta[4,5]pyrrolo[1,2-a]pyrazin-1(6H)-one as a BTK inhibitor” (HUTCHISON MEDIPHARMA LIMITED, priority 2020, dated 2022)

Tests used:
[1] = target: phosphorylated BTK in Ramos cells (Homo sapiens (Human), UniProt Q06187); assay: Determination of phosphorylated BTK in Ramos cells (BTK phospho-Y223 HTRF); type: cell-based; settings: anti-human IgM + hydrogen peroxide stimulation
Sequence of phosphorylated BTK in Ramos cells (Q06187 whole entry): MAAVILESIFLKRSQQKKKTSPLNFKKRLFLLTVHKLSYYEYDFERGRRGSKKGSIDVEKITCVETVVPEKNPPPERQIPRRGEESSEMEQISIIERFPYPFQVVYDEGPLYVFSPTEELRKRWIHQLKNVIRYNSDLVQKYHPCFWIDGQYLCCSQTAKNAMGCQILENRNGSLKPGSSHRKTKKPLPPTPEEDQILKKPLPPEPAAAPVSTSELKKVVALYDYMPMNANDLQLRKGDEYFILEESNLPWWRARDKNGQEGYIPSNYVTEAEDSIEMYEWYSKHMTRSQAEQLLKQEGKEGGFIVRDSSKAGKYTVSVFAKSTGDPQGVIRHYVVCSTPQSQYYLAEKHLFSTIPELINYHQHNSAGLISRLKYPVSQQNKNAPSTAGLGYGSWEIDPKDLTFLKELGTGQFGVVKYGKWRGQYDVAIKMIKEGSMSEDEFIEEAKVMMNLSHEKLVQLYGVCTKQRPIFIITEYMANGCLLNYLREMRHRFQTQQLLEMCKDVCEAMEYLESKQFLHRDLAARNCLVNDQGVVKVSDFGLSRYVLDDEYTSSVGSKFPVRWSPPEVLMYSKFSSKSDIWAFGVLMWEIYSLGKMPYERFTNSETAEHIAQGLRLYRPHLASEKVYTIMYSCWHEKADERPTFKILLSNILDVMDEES
Protocol: Determination of Phosphorylated BTK in Ramos Cells
(§1) 1. Reagents and Materials
Ramos cells: Ramos cells were purchased from American Standard Biological Collection Center ATCC Cell Bank, PRMI 1640 medium containing L-glutamine, 1.5 g/L of sodium bicarbonate, 2.383 g/L of HEPES solution, 0.11 g/L of sodium pyruvate and 4.5 g/L of glucose was used, added 10% fetal bovine serum FBS, and placed in a 5% CO2, 37° C. cell incubator for normal culture;
Phosphorylated BTK HTRF detection kit (BTK phospho-Y223 HTRF kit): Cisbio, Cat #63ADK017PEH;
Ramos cells were starved in PRMI 1640 medium with 1% FBS for 2 hours. The starved Ramos cells were diluted with Hank's balanced salt solution to 5.0×10^6 cells/ml, seeded in a 96-well plate with 20 μL/well (1.0×10^5 cells/well), and cultured in a 5% CO2, 37° C. cell incubator. After culturing for 1 hour, the test compound was diluted with Hank's balanced salt solution in 4-fold gradient to the corresponding concentrations, and then 5 μL/well of the diluted test compound with different concentrations (the final concentrations of the test compound were 3.0, 0.75, 0.188, 0.047, 0.012, 0.0029, 0.0007 and 0.00018 μM, and the final concentration of DMSO was 0.3%, double replicate wells) or 5 μL/well of control solution (1.5% DMSO, 8 replicate wells) were added to 20 μL/well of cell culture system, which incubated together for another hour, then 5 μL/well of a mixed solution of human immunoglobulin M (final concentration was 10 μg/mL) and hydrogen peroxide (final concentration was 3.3 mM) diluted with Hank's balanced salt solution was added to the treating wells for the test compound and the control treating wells for anti-human immunoglobulin M, and 5 μL/well of Hank's balanced salt solution was added to negative control treating wells. The plate was incubated in a 5% CO2, 37° C. cell incubator for 10 minutes.
10 μL/well of cell lysis buffer was added to each well of a 96-well plate, which was mixed well and lysed at room temperature for 30 minutes. 16 μL/well of lysis buffer was pipetted to a new 384 well plate, and then added 4 μL/well of phosphorylated BTK antibody, centrifuged (1000 rpm) for 1 minute, then shaken for 1 minute, further centrifuged (1000 rpm) for 1 minute, and finally placed in a constant temperature incubator overnight. Detection was performed on the next day.
The 384 well plate incubated overnight in the constant temperature incubator was taken out to detect the luminescence signal using the Envision microwell plate reader at the […]. The reading value at 665 nm/615 nm of each well multiplied by 104 was used as the signal value of each well.
The average signal value of the wells supplemented with the mixed solution of human immunoglobulin M (final concentration was 10 μg/mL) and hydrogen peroxide (final concentration was 3.3 mM) without the test compound was regarded as the high value, and the average signal value of the wells without immunoglobulin M stimulation and without the test compound was regarded as the low value. According to the signal value in each well, the inhibition ratio (%) of each concentration of compounds was calculated, and the 205 model in XL-Fit 5.3 software (ID Business Solutions Limited) was used to obtain an IC50 value.
The inhibition ratio is calculated as follows: inhibition ratio (%)=100%−{(treating well for the test compound−negative control treating well)/(control treating well for anti-human immunoglobulin M−negative control treating well)}×100%, wherein,
Treating well for the test compound: represents the signal value of Ramos cells treated with anti-human immunoglobulin M, hydrogen peroxide and the test compound.
Control treating well for anti-human immunoglobulin M: represents the signal value of Ramos cells treated with anti-human immunoglobulin M, hydrogen peroxide but without the test compound. […]

BTK recombinant protein = BTK recombinant protein (Homo sapiens (Human), UniProt Q06187); assay: Determination of biochemical BTK (Z'-LYTE kinase assay)
Sequence of BTK recombinant protein (Q06187 whole entry): as above
From the text: Example 2 Determination of Biochemical BTK
as §1
BTK recombinant protein: Invitrogen, Cat #PV3363;
Z′-LYTE® kinase test kit-tyrosine 1 peptide: Invitrogen, Cat #PV3190;
Z′-LYTE® biochemical assay employs a fluorescence resonance energy transfer (FRET)—based, coupled-enzyme format and is based on the differential sensitivity of phosphorylated and non-phosphorylated peptides to proteolytic cleavage. Both ends of the short peptide substrate are labeled with two fluorescent groups to form a FRET paired combination. In the primary reaction (the Kinase Reaction), the kinase transfers the γ-phosphate of ATP to a single […] residue on the short peptide substrate. In the secondary reaction (the development reaction), the non-phosphorylated short peptides were recognized and cleaved by a site-specific protease (the development reagent). Phosphorylated short peptides can resist such cleavage. Cleavage of short peptides can disrupt the donor (such as coumarin) and receptor fluorophores (fluorescein) on the short peptides, while the phosphorylated short peptides can maintain FRET. The calculation method of the ratio is as follows, and the ratio of the respective emission signals generated by the donor fluorophores emitted (after excitation at 400 nm) to the receptors is calculated. Emission signal ratio=emitted light by coumarin (445 nm)/emitted light by fluorescein (520 nm). If the FRET short peptide is phosphorylated (such as no kinase inhibitor), the emitted light ratio will remain in a lower level. If the FRET short peptide is non-phosphorylated (such as kinase inhibitor), the emitted light ratio will be in a higher level. In this way, the inhibitory effects of different compound inhibitors on BTK kinase activity would be distinguished.
The experiment were carried out according to the instructions of the Z′-LYTE® kinase test kit-tyrosine 1 peptide. Reagent preparation: 1.33× kinase buffer: 5× kinase buffer was diluted with water to 1.33× kinase buffer; an enzyme solution: the kinase was dissolved in 1.33× kinase buffer with the final working concentration being 3.32 nM; a short peptide solution: a short peptide stock solution (1 mM dissolved in DMSO) was dissolved in 1.33× kinase buffer with the final working concentration being 2 μM; Z′-LYTE Tyr01 phosphorylated short peptide solution, 0.6 μl of stock solution (1 mM dissolved in DMSO) was dissolved in 149.4 μl of 1.33× kinase buffer; an ATP solution: an ATP stock solution (10 mM aqueous solution) was dissolved in 1.33× kinase buffer with the final working concentration being 32 μM; a color-developing solution: color-developing solution B was dissolved in color-developing buffer with the final working concentration being 1× color-developing solution; 4× compound preparation: the compound was diluted in 3-fold gradient concentration to finally obtain 4% DMSO aqueous solution containing different concentrations of the compound, with the final working concentration being 3000, 1000, 333.33, 111.11, 37.04, 12.35, 4.12, 1.37 nM, 8 concentration points in total.
Specific steps of the experiment: In the experiment, there were three control groups, each with 8 replicate wells, which were C1 100% inhibition group (no ATP), C2 0% inhibition group (with ATP), and C3 100% phosphorylation group, respectively. 2.5 μl of serially diluted compound was added to each well of a 384-well plate, with double replicate wells, and 4% DMSO solution was added to wells C1, C2, and C3. After that, except for wells C3, 2.5 μl of BTK enzyme solution was added to each remaining well, which was left to stand at 4° C. for 30 minutes. After that, except for wells C3, 2.5 μl of short peptide solution was added to each well, and 5 μl of phosphorylated short peptide solution was added to each of wells C3. 2.5 μl of 1.33× kinase buffer was added to each of wells C1 and C3, and 2.5 μl of ATP solution was added to each of the remaining wells. […]

Structure (SMILES) | IC50 [1] [nM] | IC50 (BTK recombinant protein) [nM]
COC1CN(c2ccc(Nc3cc(-c4ccnc(-n5ccn6c7c(cc6c5=O)CC(C)(C)C7)c4CO)cn(C)c3=O)nc2)C1 [Compound 35] | 6 | 17
Cn1cc(-c2ccnc(-n3ccn4c5c(cc4c3=O)CC(C)(C)C5)c2CO)cc(Nc2ccc(C3=CCN(C4COC4)CC3)cn2)c1=O [Compound 36] | 12 | 31
Cn1cc(-c2ccnc(-n3ccn4c5c(cc4c3=O)CC(C)(C)C5)c2CO)cc(Nc2ccc(-c3ccc(C4COC4)cc3)cn2)c1=O [Compound 37] | 11 | 132
[2H]C([2H])([2H])n1cc(-c2ccnc(-n3ccn4c5c(cc4c3=O)CC(C)(C)C5)c2CO)cc(Nc2ccc(N3CCN(C4COC4)C[C@@H]3C)cn2)c1=O [Compound 39] | 3 | 24
CC(C)Nc1cc(-c2ccnc(-n3ccn4c5c(cc4c3=O)CC(C)(C)C5)c2CO)cn(C)c1=O [Compound 40] | > 3000 | > 3000
CN(c1ccc(Nc2cc(-c3ccnc(-n4ccn5c6c(cc5c4=O)CC(C)(C)C6)c3CO)cn(C)c2=O)nc1)C1COC1 [Compound 41] | 2 | 12
Cn1cc(-c2ccnc(-n3ccn4c5c(cc4c3=O)CC(C)(C)C5)c2CO)cc(Nc2ccc(NC3CCCOC3)cn2)c1=O (stereo not shown) [Compound 45] | 5 | 11
Cn1cc(-c2ccnc(-n3ccn4c5c(cc4c3=O)CC(C)(C)C5)c2CO)cc(Nc2ccc(N[C@@H]3CC[C@@H](CO)OC3)cn2)c1=O [Compound 46] | 5 | 8
Cn1cc(-c2ccnc(-n3ccn4c5c(cc4c3=O)CC(C)(C)C5)c2CO)cc(Nc2ccc(C(=O)N3CCOCC3)cn2)c1=O [Compound 47] | 3 | 3
COCCN(c1ccc(Nc2cc(-c3ccnc(-n4ccn5c6c(cc5c4=O)CC(C)(C)C6)c3CO)cn(C)c2=O)nc1)C(C)C [Compound 51] | 8 | 10
C[C@H]1CN(C2COC2)CCN1c1ccc(Nc2cc(-c3ccnc(-n4ccn5c(cc6cccc(F)c65)c4=O)c3CO)cn(C)c2=O)nc1 [Compound 52] | 18 | 18
C[C@H]1CN(C2COC2)CCN1c1ccc(Nc2cc(-c3ccnc(-n4ccn5c(cc6c(F)cccc65)c4=O)c3CO)cn(C)c2=O)nc1 [Compound 53] | 25 | 33
Cc1cc(Nc2cc(-c3ccnc(-n4ccn5c6c(cc5c4=O)CC(C)(C)C6)c3CO)cn(C)c2=O)ncn1 [Compound 54] | 16 | 15
Cn1cc(-c2ccnc(-n3ccn4c5c(cc4c3=O)CC(C)(C)C5)c2CO)cc(Nc2ccccn2)c1=O [Compound 55] | 8 | 19
C[C@@H]1CN(c2ccc(Nc3cc(-c4ccnc(-n5ccn6c(c(F)c7cc(F)ccc76)c5=O)c4CO)cn(C)c3=O)nc2)[C@@H](C)CN1C1COC1 [Compound 61] | 2 | 4
C[C@H]1CN(C2COC2)CCN1c1ccc(Nc2cc(-c3ccnc(-n4ccn5c6c(c(Br)c5c4=O)CC(C)(C)C6)c3CO)cn(C)c2=O)nc1 [Compound 62] | 3 | 21
C[C@H]1CN(C2COC2)CCN1c1ccc(Nc2cc(-c3ncnc(-n4ccn5c6c(cc5c4=O)CC(C)(C)C6)c3CO)cn(C)c2=O)nc1 [Compound 65] | 2 | 14
C[C@H]1CN(C2CCOC2)CCN1c1ccc(Nc2cc(-c3ccnc(-n4ccn5c6c(cc5c4=O)CC(C)(C)C6)c3CO)cn(C)c2=O)nc1 (stereo partly shown) [Compound 66] | 2 | 11
C[C@H]1CN(C2COC2)CCN1c1ccc(Nc2cc(-c3ccnc(-n4ccn5c(cc6cccnc65)c4=O)c3CO)cn(C)c2=O)nc1 [Compound 67] | 60 | 82
CC(=O)N1CCn2nc(Nc3cc(-c4ccnc(-n5ccn6c7c(cc6c5=O)CC(C)(C)C7)c4CO)cn(C)c3=O)cc2C1 [Compound 68, 2-(5-((5-acetyl-4,5,6,7-tetrahydropyrazolo[1,5-a]pyrazin-2-yl)amino)-3′-(hydroxymethyl)-1-methyl-6-oxo-1,6-dihydro-[3,4′-bispyridin]-2′-yl)-7,7-dimethyl-7,8-dihydro-2H-cyclopenta[4,5]pyrrolo[1,2-a]pyrazin-1(6H)-one] | 2 | 5
COCCN1CCn2nc(Nc3cc(-c4ccnc(-n5ccn6c7c(cc6c5=O)CC(C)(C)C7)c4CO)cn(C)c3=O)cc2C1 [Compound 70, 2-(3′-(hydroxymethyl)-5-((5-(2-methoxymethyl)-4,5,6,7-tetrahydropyrazolo[1,5-a]pyrazin-2-yl)amino)-1-methyl-6-oxo-1,6-dihydro-[3,4′-bispyridin]-2′-yl)-7,7-dimethyl-7,8-dihydro-2H-cyclopenta[4,5]pyrrolo[1,2-a]pyrazin-1(6H)-one] | 2 | 10
C[C@H]1CN(C2COC2)CCN1c1ccc(Nc2cc(-c3ccnc(-n4ccn5c6c(cc5c4=O)CC(C)(C)C6)c3C=O)cn(C)c2=O)nc1 [Compound 72] | 97 | 58
Cn1cc(Nc2cc(-c3ccnc(-n4ccn5c6c(cc5c4=O)CCC6)c3CO)cn(C)c2=O)nn1 [Compound 73] | 116 | 216
